# Patent publication US20070037887A1, “Blockade of mtor to prevent a hormonal adaptive response” (University of Virginia Patent Foundation, priority 2003, published 2007)
# Experiments:
# [1] = system: ERK1/2, Akt, p70S6K, PHAS-1 phosphorylation in LTED cells; assay: EGF induced activation of MAP kinase, PI3 kinase and mTOR in LTED cells (Western); type: cell-based, human; conditions: pretreatment FTS 1 h, LY 294002 or rapamycin 3 h; EGF 1 μg/ml 1 h
# Text: FIG. 8 represents data showing the effect of FTS on EGF induced activation of MAP kinase, PI3 kinase, and mTOR in LTED cells. […] Cells were then harvested and cell lysate prepared. Phosphorylated and total kinases were detected by Western analysis using specific antibodies.
# The effects of the specific growth factors, EFG and IGF-1 were also examined. Serum contains multiple growth factors that activate MAP kinase and PI3 kinase either by recruitment and activation of the common mediator Ras (such as EGF) or through a direct mechanism (such as IGF-1). To further explore the site of action of FTS, EGF-induced activation of MAPK and PI3 kinase was first examined. Specific inhibitors for PI3 kinase and mammalian target of rapamycin (mTOR) were included for comparison. […] One-hour treatment was chosen as the time point allowing most efficient comparisons among molecules.
# [2] = system: Shc; assay: E2-induced Shc phosphorylation in MCF-7 cells; type: cell-based, human; conditions: 10^−10 M E2 for 3 minutes
# Experimental: Because ERα, Shc and MAP kinase are all involved in E2 action in MCF-7 cells, upstream components responsible for Shc phosphorylation were determined by measuring the effects of PP2, ICI and PD98059 on E2-induced phosphorylation of Shc. In the presence of the inhibitors, MCF-7 cells were stimulated with vehicle or 10^−10 M E2 for 3 minutes and the status of Shc phosphorylation was examined. […] No effects of these inhibitors were apparent in the absence of E2 stimulation. […] Each of these inhibitors was capable of reducing the rate of cell proliferation in LTED cells.
# [3] = system: LTED cells; assay: [3H] thymidine incorporation into DNA, LTED cells; type: cell-based, human; conditions: inhibitors of the MAP kinase pathway
# Experimental: (§1) FIGS. 5A & 5B represent the effect of FTS on DNA synthesis in MCF-7 (FIG. 5A) and LTED (FIG. 5B) cells. One hundred thousand cells were plated into each well of 24-well plates. Two days later, the cells were re-fed with IMEM containing 5% DCC-FBS. After another two days, cells were treated in quadruplicate with the compounds indicated for 18 hours. [^3H] thymidine (1 μCi/well) was added during the last 2 h of incubation. [^3H] thymidine incorporated into DNA was normalized by protein content.
# (§2) The inhibitory effect of FTS on cell growth may be the result of inhibition of cellular proliferation, induction of apoptosis, or both. To determine the mechanism by which FTS inhibits cell growth, FTS's effect on DNA synthesis and apoptosis was investigated. […] Estradiol (10^−10 M) increased [^3H] thymidine incorporation by 2.6 fold compared to the control level in MCF-7 cells.
# [4] = system: MCF-7 cells; assay: Growth of MCF-7 cells (cell number); type: cell-based, human; conditions: E2 10^−10 M, five-day treatment
# Experimental: FIG. 3 represents the effect of FTS on the growth of MCF-7, LTED, and MCF-10A cells. Sixty thousand cells were plated into each well of 6-well plates. Two days later, the cells were treated in triplicate for five days with FTS at indicated concentrations. The results (mean±S.E.) are expressed as percentage of the vehicle control.
# FIG. 4 represents the effect of FTS on E2 stimulated growth of MCF-7 and LTED cells. Thirty thousand cells were plated into each well of 6-well plates. Two days later, the cells were re-fed with IMEM containing 5% DCC-FBS. After another two days, cells were treated in triplicate with estradiol (10^−10 M) plus various concentrations of FTS for five days. In LTED cells, fulvestrant (10^−9 M) was included in all wells to block the effect of residual estrogen in the culture. The results (mean±S.E.) are expressed as percentage of cell number from the wells containing E2.
# The effect of FTS on growth of breast cancer cells was examined in two different cell lines: MCF-7 wild type cells which represent a model for untreated breast cancer and LTED cells as a model of cells adapting to endocrine treatment. Cells were grown in their culture media and treated with FTS for five days. […] The effect of FTS on E2-stimulated growth of MCF-7 and LTED cells was the examined. Five-day treatment of MCF-7 cells with E2 (10^−10 M) increased cell number by 8-fold compared with the vehicle control. Addition of FTS reduced cell number in a dose-dependent manner with about 50% inhibition at the concentration of 50 μM […]. […] The extent of inhibition of E2-stimulated cell growth by FTS was similar in these two cell lines.
# [5] = system: MAP kinase; assay: MAP kinase activation in LTED cells; type: cell-based, human
# Experimental: Upregulation of MAP kinase and PI-3-kinase could reflect either a constitutive activation of growth factor receptors, an increase in the endogenous secretion of growth factors, or other mechanisms. Inhibition of MAP kinase with a pure antiestrogen would rule out the possibility of constitutive activation of growth factor receptors or growth factor secretion. Accordingly, the pure anti-estrogen, faslodex (fulvestrant) was administered and the level of activation of MAP kinase in LTED cells was examined.
# Estrogen deprivation might trigger activation of a non-genomic, estrogen regulated, MAP kinase pathway which utilizes Shc. […] The addition of E2 stimulated MAP kinase phosphorylation in LTED cells within minutes. The increased MAP kinase phosphorylation by E2 was time and dose-dependent being greatly stimulated at 15 min and remaining elevated for at least 30 min. Maximal stimulation of MAP kinase phosphorylation was at 10^−10 M of E2.
# [6] = system: MCF-7 cells; assay: [3H] thymidine incorporation into DNA, MCF-7 cells; type: cell-based, human; conditions: Estradiol 10^−10 M
# Experimental: as §1, §2
# [7] = system: mTOR-raptor complex; assay: Coimmunoprecipitation of raptor with mTOR from 293T cells incubated with compound; type: cell-based; conditions: 293T cells incubated with 200 μM
# Experimental: FIG. 11A & 11B represent data showing FTS inhibits PHAS-I phosphorylation and promotes dissociation of the mTOR-raptor complex in 293T cells. 293T cells were transfected with pcDNA3AU1-mTOR, pcDNA33HARaptor, pcDNA33HA-mLST8, and pCMV-Tag3APHAS-I (FIG. 11A). After 18 h the cells were incubated for 1 h with increasing concentrations of FTS before extracts were prepared. A sample of each extract was subjected to SDS-PAGE and immunoblotted to detect PHAS-I or PThr^36/45. AU1-mTOR was also immunoprecipitated from each extract, and immune complexes were subjected to SDSPAGE and immunoblotted with mTAb2, to detect mTOR, and with anti-HA antibodies, to detect HA-mLST8 and HA-raptor. Nontransfected 293T cells were incubated with increasing concentrations of FTS for 1 h before extracts were prepared. mTOR was immunoprecipitated with mTAb1, and samples were subjected to SDS-PAGE.
# (§3) FIGS. 12A & 12B represent data showing the effects of incubating cells with increasing concentrations of FTS and GTS on mTOR activity and mTOR association with raptor and mLST8. AU1-mTOR, HA-raptor, and HAmLST8 were overexpressed in 293T cells. The cells were then incubated for 1 h with increasing concentrations of FTS (●, ▴, ▪) or GTS (∘, Δ, □) before extracts were prepared. Immunoprecipitations were then conducted with anti-AU1 antibodies. mTOR kinase activity (●, ∘) was determined by measuring ^32P incorporation into [His^6]PHAS-I in immune complex kinases assays performed with [γ-^32P]ATP. The relative amounts of HA-raptor (▴, Δ) and HA-mLST8 (▪, □) that coimmunoprecipitated with AU1-mTOR were determined after immunoblotting with anti-HA antibodies. The results (mean values±S.E. from 3 experiments) are expressed as percentages of the mTOR activity (FIG. 12A) or coimmunoprecipitating proteins (FIG. 12B) from samples incubated without FTS or GTS, and have been corrected for the amounts of AU1-mTOR immunoprecipitated.
# To investigate further the inhibitory effects of FTS on mTOR signaling, the effect of the drug on the association of mTOR, raptor, and mLST8 was determined. AU1-mTOR and HA-tagged forms of raptor and mLST8 were overexpressed in 293T cells, which were then incubated with increasing concentrations of FTS before AU1-mTOR was immunoprecipitated with anti-AU1 antibodies. Immunoblots were prepared with anti-HA antibodies to assess the relative amounts of HA-raptor and HA-mLST8 that coimmunoprecipitated with AU 1-mTOR (FIG. 11A).
# Results obtained with overexpressed proteins are not necessarily representative of responses of endogenous proteins. Therefore, experiments were conducted to investigate the effect FTS on the endogenous TORC1 in nontransfected cells. […]
# [8] = target: T1, mTOR (Rattus norvegicus, UniProt P42346); assay: Immune complex assay of mTOR activity after incubating 293T cells with compound; type: cell-based; conditions: 293T cells incubated with 200 μM
# T1 construct: expressed in transfected cells; host or cells: 293T
# Experimental: as §3
# FIG. 12A presents results of immune complex kinases assays with AU1-mTOR from extracts of 293T cells that had been incubated with increasing concentrations of FTS.
# Immune complex assay of mTOR activity—AU1-mTOR was immunoprecipitated by using anti-AU1 antibody bound to protein G-agarose beads as described previously (McMahon, et al., (2002) Mol. Cell. Biol. 22, 7428-7438). Endogenous mTOR was immunoprecipitated in the same manner, except that mTAb1 was used instead of anti-AU1 antibody. To measure kinase activity, exhaustively washed immune complexes were suspended in 20 μl of Buffer A (50 mM NaCl, 0.1 mM EGTA, 1 mM dithiothreitol (DTT), […], 10 mM Na-HEPES, and 50 mM β-glycerophosphate, pH 7.4.). The kinase reactions were initiated by adding 20 μl of Buffer A supplemented with 2 mM [γ-^32P]ATP, 20 mM MnCl2 and 40 μg/ml of [His^6]PHAS-I. In experiments in which the effects of wortmannin were investigated, DTT was omitted from the reactions, and [His^6]PHAS-I that had been reduced and alkylated with N-ethylmaleimide was used as substrate. Reactions were terminated after 10 min at 30° by adding SDS sample buffer. Samples were subjected to SDS-PAGE and the relative amounts of ^32P incorporated into [His^6]PHAS-I were determined.
# [9] = system: MCF-7 cells; assay: Estradiol dose response of growth, wild type MCF-7 cells; type: cell-based, human; conditions: TGF alpha 10 ng/ml
# Experimental: As further evidence of the role of MAP kinase, PD 98059 was administered to LTED cells and its effect on level of sensitivity to estradiol was examined.
# To investigate whether the MAP and P13 kinase pathways have a role in estradiol induced cell proliferation, the following experiments were conducted. […] Blockade of this effect was obtained with the MAPK inhibitor PD98059. Administration of TGF at a dose of 10 ng/ml caused a 2-log shift to the left in the ability of estradiol to stimulate the growth of wild-type MCF-7 cells. […] Dual inhibition of PI3K with LY40029 and MAPK with U0126 shifted the level of sensitivity to estradiol more dramatically, by more than 2 logs to the right. On the basis of these observations, it is believed that adaptive hypersensitivity involves the joint activation of the PI3K and MAPK pathways.
molecule,measurement,setting,value
"O=c1cc(N2CCOCC2)oc2c(-c3ccccc3)cccc12 [LY 294002, reference compound]",EGF-induced ERK1/2 MAP kinase phosphorylation,[1],did not inhibit
CC(C)(C)n1nc(-c2ccc(Cl)cc2)c2c(N)ncnc21 [PP2],E2-induced Shc phosphorylation,[2],effectively inhibited
N#CC(=C(/N)Sc1ccccc1N)/C(C#N)=C(\N)Sc1ccccc1N [U 0126],incorporation of tritiated thymidine into DNA,[3],block the incorporation
"C[C@]12CC[C@@H]3c4ccc(O)cc4CC[C@H]3[C@@H]1CC[C@@H]2O [estradiol, reference compound]",increase of cell number compared with the vehicle control,[4],8 fold
same,concentration of maximal stimulation of MAP kinase phosphorylation,[5],10^−10 M
same,increase of [3H] thymidine incorporation compared to control level,[6],2.6 fold
O=c1c(-c2ccc(O)cc2)coc2cc(O)cc(O)c12 [genestein],incorporation of tritiated thymidine into DNA,[3],block tritiated thymidine uptake
CC[C@H](C)C(=O)O[C@H]1CCC=C2C=C[C@H](C)[C@H](CC[C@@H]3C[C@@H](O)CC(=O)O3)[C@H]21 [mevastatin],incorporation of tritiated thymidine into DNA,[3],block tritiated thymidine uptake
"CO[C@H]1C[C@@H]2CC[C@@H](C)[C@@](O)(O2)C(=O)C(=O)N2CCCC[C@H]2C(=O)O[C@H]([C@H](C)C[C@@H]2CC[C@@H](O)[C@H](OC)C2)CC(=O)[C@H](C)/C=C(\C)[C@@H](O)[C@@H](OC)C(=O)[C@H](C)C[C@H](C)/C=C/C=C/C=C/1C [rapamycin, reference compound]",EGF-induced ERK1/2 MAP kinase phosphorylation,[1],did not inhibit
"O=C([O-])c1ccccc1O.[Na+] [sodium salicylate, reference compound]",association of mTOR and raptor,[7],without effect
same,mTOR activity,[8],without effect
TGF alpha: growth factor used to activate MAP kinase in wild type MCF-7 cells,shift to the left of estradiol dose response for growth,[9],two log shift to the left
same,shift to the left of estradiol dose response for growth,[9]; listed as TGF,2 log
